Results as given in the supplement of paper PMC10307832.

Tests used:
Assay in all cases: relative viability (nuclei count vs DMSO), 5 days (fraction); higher = more cells survive
Motesanib + Pictilisib = compound: CC1(C)CNc2cc(NC(=O)c3cccnc3NCc3ccncc3)ccc21 [Motesanib] + CS(=O)(=O)N1CCN(Cc2cc3nc(-c4cccc5[nH]ncc45)nc(N4CCOCC4)c3s2)CC1 [Pictilisib] (partner 1 µM)
In short: (§1)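 Lung cancer cell lines, seeded in 1536-well plates, were treated the following day by pin tool with a single drug or with five library-drug doses (not always all listed) in √10 steps on top of a fixed anchor-drug dose. Cells were fixed and nuclei stained in one step after 5 days, and nuclei were counted. Relative viability is the nuclei count for treated wells divided by that for vehicle wells, reported as medians of duplicate plates.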

[1] = compound: C[C@@]1(C(=O)Nc2ccc(F)nc2)CCCN1c1nc(Nc2cc(C3CC3)n[nH]2)c2cccn2n1 + CC(=O)Nc1cccc(-n2c(=O)n(C3CC3)c(=O)c3c(Nc4ccc(I)cc4F)n(C)c(=O)c(C)c32)c1 [Trametinib] (partner 0.02 µM)
In short: as §1

Motesanib + Decitabine = compound: CC1(C)CNc2cc(NC(=O)c3cccnc3NCc3ccncc3)ccc21 [Motesanib] + Nc1ncn([C@H]2C[C@H](O)[C@@H](CO)O2)c(=O)n1 [Decitabine] (partner 2 µM)
In short: as §1

[2] = compound: C[C@@]1(C(=O)Nc2ccc(F)nc2)CCCN1c1nc(Nc2cc(C3CC3)n[nH]2)c2cccn2n1 + NC(=O)Nc1cc(-c2cccc(F)c2)sc1C(=O)N[C@H]1CCCNC1 [AZD7762] (partner 0.2 µM)
In short: as §1

Cell Line	relative viability (Motesanib + Pictilisib; first compound 0.01 µM)	relative viability (Motesanib + Pictilisib; first compound 0.03162 µM)	relative viability (Motesanib + Pictilisib; first compound 0.1 µM)	relative viability (Motesanib + Pictilisib; first compound 0.3162 µM)	relative viability (Motesanib + Pictilisib; first compound 1 µM)	relative viability ([1]; first compound 0.04 µM)	relative viability ([1]; first compound 0.1265 µM)	relative viability ([1]; first compound 0.4 µM)	relative viability ([1]; first compound 1.265 µM)	relative viability (Motesanib + Decitabine; first compound 0.01 µM)	relative viability (Motesanib + Decitabine; first compound 0.03162 µM)	relative viability (Motesanib + Decitabine; first compound 0.1 µM)	relative viability (Motesanib + Decitabine; first compound 0.3162 µM)	relative viability (Motesanib + Decitabine; first compound 1 µM)	relative viability ([2]; first compound 0.04 µM)	relative viability ([2]; first compound 0.1265 µM)	relative viability ([2]; first compound 0.4 µM)	relative viability ([2]; first compound 1.265 µM)
HCC-44	0.672	0.611	0.891	0.673	0.474	0.879	0.871	0.717	1.02	0.972	0.952	0.932	1.07	0.932	1.02	0.954	0.989	0.979
HCC-78	0.182	0.198	0.174	0.207	0.182	0.637	1.19	0.334	0.327	0.657	0.654	0.808		0.817	0.593	0.419	0.418	0.4
HCC-366	0.145	0.149	0.139	0.139	0.137	0.4	0.197	0.194	0.178	0.381	0.439	0.416	0.397	0.635	0.356	0.31	0.293	0.152
HCC-827	1.12	1.13	0.866	1.01	1.04	0.518	0.499	0.45	0.557	0.332	0.421	0.406	0.344	0.309	0.273	0.19	0.241	0.191
IA-LM	0.38	0.346	0.351	0.318	0.519													
NCI-H520	0.269	0.267	0.345	0.284	0.207	0.753	0.571	0.523	0.591	0.554	0.538	0.626	0.613	0.669				
NCI-H522						0.692	0.696	0.595	0.586	0.615	0.675	0.639	0.725	0.691	0.678	0.539	0.791	0.821
NCI-H661	0.327	0.35	0.348	0.379	0.43	0.605	0.55	0.591	0.555	0.486	0.528	0.556	0.631	0.625				
NCI-H1299	0.59	0.828	0.825	0.845	0.845													
NCI-H1563	0.65	0.645	0.68	0.64	0.678													
NCI-H1648						0.391	0.285	0.282	0.39	0.498			0.531	0.42	0.671	0.608	0.586	0.676
NCI-H1650	0.592		0.516	0.495	0.517	0.672	0.5	0.51	0.572	0.53	0.352	0.445	0.546	0.564				
NCI-H1703	0.21	0.219	0.195	0.215	0.214										0.145	0.111	0.13	0.12
NCI-H2009	0.734	0.732	0.818	0.827	0.873	0.297	0.314	0.235	0.243	0.394	0.369	0.394	0.38	0.463				
NCI-H2023	0.234	0.226	0.276	0.239	0.238	0.454	0.387	0.297	0.277	0.23	0.226	0.281	0.25	0.347				
NCI-H2228	0.442	0.356	0.387	0.365	0.535	0.485	0.287	0.276	0.302									
NCI-H2342						0.668	0.813	0.605	0.7	0.765	0.608	0.759	0.765	0.9	0.475	0.375	0.404	0.323
SK-LU-1	0.494	0.481	0.553	0.628	0.663	0.45	0.413	0.421	0.469	0.676	0.649	0.823	0.831	0.824				
SK-MES-1	0.392	0.405	0.403	0.381	0.339	0.604	0.483	0.522	0.633	0.358	0.383	0.59	0.561	0.695				
SW 900						0.764	0.805	0.808	0.572	0.58	0.475	0.632	0.677	0.749	0.541	0.688	0.5	0.561
SW 1573	0.479	0.437	0.617	0.54	0.563	0.496	0.389	0.368	0.412	0.532	0.511	0.458	0.586	0.553				
